Measurements: PubChem BioAssay AID248 (DTP/NCI, 2004)
Toxic doses and inconclusive results are not listed. Cut-off read from the data, not from the text of the source: active = T/C of 150% or more; inactive = T/C below 125%.

Tested on: L1210 leukemia ip in BDF1 mice, survival T/C
Test: NCI In Vivo Anticancer Drug Screen. Data for tumor model L1210 Leukemia (intraperitoneal) in B6D2F1 (BDF1) mice
Conditions: endpoint: mean survival time, higher = longer survival
Outline: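 In this screen, tumor-bearing mice given compound are compared to those given vehicle, and their survival values are reported as a treated-to-control quotient.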

[1] = dose: 100.0 mg/kg/injection, schedule: Q04DX003 (ip), vehicle: Klucel (hydroxypropylcellulose) (HPC)
[2] = dose: 100.0 mg/kg/injection, schedule: Q01DX009 (ip), vehicle: saline with Tween-80
[3] = dose: 100.0 mg/kg/injection, schedule: Q04DX003 (ip), vehicle: saline with Tween-80
[4] = dose: 200.0 mg/kg/injection, schedule: Q01DX009 (ip), vehicle: saline with Tween-80
[5] = dose: 100.0 mg/kg/injection, schedule: Q04DX002 (ip), vehicle: saline
[6] = dose: 200.0 mg/kg/injection, schedule: Q04DX002 (ip), vehicle: saline
[7] = dose: 400.0 mg/kg/injection, schedule: Q04DX002 (ip), vehicle: saline
[8] = dose: 100.0 mg/kg/injection, schedule: Q04DX003 (ip), vehicle: saline
[9] = dose: 100.0 mg/kg/injection, schedule: Q04DX002 (ip), vehicle: Klucel (hydroxypropylcellulose) (HPC)
[10] = dose: 200.0 mg/kg/injection, schedule: Q04DX002 (ip), vehicle: Klucel (hydroxypropylcellulose) (HPC)

Measured: T/C

Clc1ccccc1C(=Nc1ccccc1)C(=Nc1ccccc1)c1ccccc1Cl
inactive: dose: 12.5 mg/kg/injection, schedule: Q01DX001 (ip), vehicle: Klucel (hydroxypropylcellulose) (HPC) 106 % of control | dose: 25.0 mg/kg/injection, schedule: Q01DX001 (ip), vehicle: Klucel (hydroxypropylcellulose) (HPC) 102 % of control | dose: 25.0 mg/kg/injection, schedule: Q04DX003 (ip), vehicle: Klucel (hydroxypropylcellulose) (HPC) 90 % of control | dose: 50.0 mg/kg/injection, schedule: Q01DX001 (ip), vehicle: Klucel (hydroxypropylcellulose) (HPC) 106 % of control | dose: 50.0 mg/kg/injection, schedule: Q04DX003 (ip), vehicle: Klucel (hydroxypropylcellulose) (HPC) 92 % of control | dose: 100.0 mg/kg/injection, schedule: Q01DX001 (ip), vehicle: Klucel (hydroxypropylcellulose) (HPC) 88 % of control | [1] 87 % of control | dose: 400.0 mg/kg/injection, schedule: Q01DX001 (ip), vehicle: Klucel (hydroxypropylcellulose) (HPC) 90 % of control

C=C(C(=O)c1ccccc1)C(NC(C)(C)C)c1ccccc1 (configuration not stated)
inactive: dose: 5.0 mg/kg/injection, schedule: Q01DX001 (ip), vehicle: saline 95 % of control | dose: 10.0 mg/kg/injection, schedule: Q01DX001 (ip), vehicle: saline 98 % of control | dose: 20.0 mg/kg/injection, schedule: Q01DX001 (ip), vehicle: saline 95 % of control

CCOC(=O)c1ccc(NC(=O)Nc2ccccc2Cl)cc1
inactive: [2] 93 % of control | [3] 91 % of control | [4] 87 % of control | dose: 200.0 mg/kg/injection, schedule: Q04DX003 (ip), vehicle: saline with Tween-80 93 % of control | dose: 400.0 mg/kg/injection, schedule: Q01DX009 (ip), vehicle: saline with Tween-80 92 % of control | dose: 400.0 mg/kg/injection, schedule: Q04DX003 (ip), vehicle: saline with Tween-80 94 % of control

CC[C@@]1(O)C[C@H](OC2CC(N(C)C)C(OC3CC(O)C(OC4CCC(=O)C(C)O4)C(C)O3)C(C)O2)c2c(cc3c(c2O)C(=O)c2c(O)ccc(O)c2C3=O)[C@H]1C(=O)OC (some centres not stated)
inactive: dose: 0.5 mg/kg/injection, schedule: Q01DX003 (ip), vehicle: saline 111 % of control | dose: 0.59 mg/kg/injection, schedule: Q01DX001 (ip), vehicle: saline 107 % of control | dose: 0.59 mg/kg/injection, schedule: Q01DX009 (ip), vehicle: saline 111 % of control | dose: 0.59 mg/kg/injection, schedule: Q04DX003 (ip), vehicle: saline 109 % of control | dose: 0.65 mg/kg/injection, schedule: Q01DX009 (ip), vehicle: water 122 % of control | dose: 0.75 mg/kg/injection, schedule: Q01DX009 (ip), vehicle: saline 121 % of control | dose: 0.89 mg/kg/injection, schedule: Q01DX001 (ip), vehicle: saline 107 % of control | dose: 0.89 mg/kg/injection, schedule: Q01DX009 (ip), vehicle: saline 113 % of control | dose: 0.89 mg/kg/injection, schedule: Q04DX003 (ip), vehicle: saline 105 % of control | dose: 1.0 mg/kg/injection, schedule: Q01DX003 (ip), vehicle: saline 113 % of control | dose: 1.0 mg/kg/injection, schedule: Q01DX009 (ip), vehicle: saline 119 % of control | dose: 1.04 mg/kg/injection, schedule: Q04DX003 (ip), vehicle: water 112 % of control | dose: 1.33 mg/kg/injection, schedule: Q01DX001 (ip), vehicle: saline 102 % of control | dose: 1.33 mg/kg/injection, schedule: Q01DX009 (ip), vehicle: saline 120 % of control | dose: 1.33 mg/kg/injection, schedule: Q04DX003 (ip), vehicle: saline 111 % of control | dose: 1.73 mg/kg/injection, schedule: Q04DX003 (ip), vehicle: water 112 % of control | dose: 2.0 mg/kg/injection, schedule: Q01DX001 (ip), vehicle: saline 109 % of control | dose: 2.0 mg/kg/injection, schedule: Q04DX003 (ip), vehicle: saline 107 % of control | dose: 2.59 mg/kg/injection, schedule: Q01DX001 (ip), vehicle: water 112 % of control | dose: 3.0 mg/kg/injection, schedule: Q01DX001 (ip), vehicle: saline 117 % of control | dose: 3.0 mg/kg/injection, schedule: Q01DX009 (ip), vehicle: saline 103 % of control | dose: 3.0 mg/kg/injection, schedule: Q01DX009 (ip), vehicle: water 96 % of control | dose: 12.0 mg/kg/injection, schedule: Q01DX001 (ip), vehicle: water 113 % of control | dose: 20.0 mg/kg/injection, schedule: Q01DX001 (ip), vehicle: water 98 % of control

NCCOc1ccccn1
inactive: [5] 111 % of control | [6] 101 % of control | [7] 101 % of control

CCOC(=O)Oc1ccc(OC)cc1
inactive: dose: 100.0 mg/kg/injection, schedule: Q01DX009 (ip), vehicle: Klucel (hydroxypropylcellulose) (HPC) 111 % of control | [8] 98 % of control | dose: 200.0 mg/kg/injection, schedule: Q01DX009 (ip), vehicle: Klucel (hydroxypropylcellulose) (HPC) 96 % of control | dose: 200.0 mg/kg/injection, schedule: Q04DX003 (ip), vehicle: saline 112 % of control | dose: 400.0 mg/kg/injection, schedule: Q01DX009 (ip), vehicle: Klucel (hydroxypropylcellulose) (HPC) 96 % of control | dose: 400.0 mg/kg/injection, schedule: Q04DX003 (ip), vehicle: saline 124 % of control

NNC(=O)CNc1ccc(F)cc1Br
inactive: [9] 101 % of control | [10] 101 % of control

CCOCCN1CCN(CCCN2c3ccccc3Sc3ccc(C(F)(F)F)cc32)CC1
inactive: dose: 0.19 mg/kg/injection, schedule: Q01DX009 (ip), vehicle: water 95 % of control | dose: 0.39 mg/kg/injection, schedule: Q01DX009 (ip), vehicle: water 98 % of control | dose: 0.78 mg/kg/injection, schedule: Q01DX009 (ip), vehicle: water 111 % of control | dose: 1.56 mg/kg/injection, schedule: Q01DX009 (ip), vehicle: water 110 % of control | dose: 22.0 mg/kg/injection, schedule: Q04DX003 (ip), vehicle: other 122 % of control | dose: 100.0 mg/kg/injection, schedule: Q04DX003 (ip), vehicle: water 98 % of control

CC(C)(N)CNc1ccccc1
inactive: dose: 25.0 mg/kg/injection, schedule: Q01DX009 (ip), vehicle: saline 98 % of control | dose: 25.0 mg/kg/injection, schedule: Q04DX003 (ip), vehicle: saline 97 % of control | dose: 50.0 mg/kg/injection, schedule: Q01DX009 (ip), vehicle: saline 98 % of control | dose: 50.0 mg/kg/injection, schedule: Q04DX003 (ip), vehicle: saline 92 % of control | dose: 100.0 mg/kg/injection, schedule: Q01DX009 (ip), vehicle: saline 100 % of control | [3] 98 % of control | [8] 105 % of control

Cc1cc(C)c(C)c(NCCCS(=O)(=O)O)c1C
inactive: [1] 98 % of control | dose: 200.0 mg/kg/injection, schedule: Q04DX003 (ip), vehicle: Klucel (hydroxypropylcellulose) (HPC) 102 % of control | dose: 400.0 mg/kg/injection, schedule: Q04DX003 (ip), vehicle: Klucel (hydroxypropylcellulose) (HPC) 100 % of control

CC(C)(C)NC(=O)NCCCN1CCOCC1
inactive: [5] 96 % of control | [6] 90 % of control | [7] 96 % of control

CCCCCC/C=N/NC(=O)c1ccc[n+](C)c1
inactive: dose: 50.0 mg/kg/injection, schedule: Q01DX009 (ip), vehicle: saline with Tween-80 93 % of control | [2] 100 % of control | [4] 100 % of control

CC(C)OC(=S)SCC(=O)c1ccccc1
inactive: [9] 92 % of control | [10] 101 % of control | dose: 400.0 mg/kg/injection, schedule: Q04DX002 (ip), vehicle: Klucel (hydroxypropylcellulose) (HPC) 99 % of control
